What all share (type): in vivo
Assay [1] has as its system Tobacco Budworm [Heliothis virescens] larvae. Nature of the assay: Tobacco Budworm newly hatched larvae test. Particulars: 3 days. Here is the method:
(§1) Tobacco Budworm [Heliothis virescens (Fabricus)].
(§2) A cotton plant with 2 true leaves expanded is dipped for 3 seconds with agitation in a 300 ppm solution. A 1.25 to 2 cm square of cheesecloth with about 50 to 100 budworm eggs 0-24 hours old is also dipped in the test solution and placed on one leaf to dry. The leaf with the treated budworm eggs is removed from the plant and placed in a 236.6 ml (8-Oz) Dixie cup with a wet 5 cm piece of dental wick and covered with a lid. The other leaf is placed in a similar cup with a wick and a piece of cheesecloth infested with 50-100 newly hatched larvae is added before covering the cup with a lid. After 3 days at 26.7° C., observations of egg hatch are made as well as kill of newly hatched larvae, any inhibition of feeding, or interference of any sort with normal development.
(§3) The rating system employed in these tests is as follows:
(§4) Compounds rated active (8 or 9) are further tested at reduced concentrations in 50% acetone: 50% water.

In assay [2] the test system is Malaria Mosquito (Anopheles quadrimaculatus). Nature of the assay: Malaria Mosquito egg and larvae test. On the procedure:
Malaria Mosquito (Anopheles quadrimaculatus say) egg and larvae test. One ml of a 300 ppm solution is pipetted into a 400 ml beaker containing 250 ml of deionized water and stirred with the pipette, giving a concentration of 1.2 ppm. A wax paper ring 0.6 cm wide to fit inside the beaker is floated on the surface of the test solution to keep the eggs from floating up the meniscus curve and drying out on the side of the glass. A spoon made of screen is used to scoop up and transfer about 100 eggs (0-24 hours old) into the test beaker. After two days at 26.7°C. observations of hatching are made. This includes kill of eggs or inhibition of hatch, kill of newly hatched larvae, or delayed hatch. Additional observations are made after another day for the same effects. The rating system employed in these tests is as follows: Compounds rated active (8 or 9) are further tested at reduced concentrations in 50% acetone: 50% water.

Assay [3] has as its system Tobacco Budworm [Heliothis virescens] eggs. The assay is described as follows: Tobacco Budworm egg test. Particulars: 300 ppm, 3 days. On the procedure: as §1, §2, §3, §4
Assay [4] deals with Southern Armyworm [Spodoptera eridania]. The assay is described as follows: Southern Armyworm residual activity, 7 days. Particulars: 7 days from original treatment. On the procedure:
(§5) Southern Armyworm [Spodoptera eridania (Cramer)].
(§6) A sieva lima bean plant with just the primary leaves expanded to 7.6 to 10 cm is dipped for 3 seconds with agitation in a 1000 ppm solution and set in a hood to dry. Following this, one leaf is placed in a 10 cm petri dish which has a moist filter paper in the bottom and 10 third-instar armyworm larvae about 1 cm long. The dish is covered and held at 26.7° C. After 2 days mortality counts and estimates of the amount of feeding are made. Compounds showing partial kill and/or inhibition of feeding are held for an extra day for further observations.
All compounds showing activity as defined above are retested, using the second leaf on the bean plant, after an interval of 7 days from original treatment, as an assay of residual activity.
The rating system employed in these tests is as follows: […]

For assay [5], the system named is Two-Spotted Spider Mite [Tetranychus urticae]. The assay is described as follows: Phosphate-Resistant Strain of Two-Spotted Spider Mite test. Here is the method: Phosphate-Resistant Strain of Two-Spotted Spider Mite [Tetranychus urticae (Koch)].
Sieva lima bean plants, with primary leaves 7.6 to 10 cm long, are infested with about 100 adult mites per leaf 4 hours before use in this test, in order to allow egg-laying before treatment. The infested plants are dipped for 3 seconds with agitation into a 300 ppm solution, and the plants set in the hood to dry. After 2 days at 26.7° C., the adult mite mortality is estimated on one leaf under a 10X stereoscopic microscope. The other leaf is left on the plant an additional 5 days and then examined at 10X power to estimate the kill of eggs and of newly-hatched nymphs, giving a measure of ovicidal and residual action, respectively.
as §3, §4

In assay [6] the test system is Mexican Bean Beetle (Epilachna varivestis). Nature of the assay: Mexican Bean Beetle test.
Text: Mexican Bean Beetle (Epilachna varivestis Mulsant)
Sieva lima bean plants (2 per pot) with primary leaves 7.6 to 10 cm long, are dipped in a 300 ppm solution and set in a hood to dry. One leaf is removed from the plant and placed in a 10 cm petri dish containing a moist filter paper on the bottom and 10 last-instar larvae (13 days from hatching).
The day after treatment, another leaf is removed from the plant and fed to the larvae after removing the remains of the original leaf. Two days after treatment, the third leaf is fed to the larvae, this usually being the last needed. The fourth leaf is used on the third day after treatment if the larvae have not finished feeding. The test is now set aside and held until adults have emerged, usually about 9 days after treatment began. After emergence is complete, each dish is examined for dead larvae, pupae or adults; deformed pupae or adults; larval-pupal intermediates or pupal-adult intermediates; or any other interference with normal molting, transformation and emergence of pupae or adults.
as §3, §4

Assay [7] concerns Southern Armyworm [Spodoptera eridania]. Nature of the assay: Southern Armyworm test. Particulars: 2 days. On the procedure:
as §5, §6, §3, §4

Turning to `CC1(C)C(C(=O)OCc2cccc(Oc3ccccc3)c2)C12C=C(Cl)c1ccccc12` (centres unmarked) [drawing 10], the “Insecticidal activity rating, Tobacco Budworm Larvae” value in assay [1] (10 ppm), in assay [1] (100 ppm) and in assay [1] (300 ppm) was 9 (100% mortality) each time. Also, the “Insecticidal activity rating, Mosquito Larvae” value in assay [2] (0.04 ppm), in assay [2] (0.4 ppm) and in assay [2] (1.2 ppm) was 9 (100% mortality) each time. Besides, the “Insecticidal activity rating, Tobacco Budworm Eggs” value in assay [3] is given as 0 (0-4% killed or affected).

Turning to `CC1(C)C(C(=O)OC(C#N)c2cccc(Oc3ccccc3)c2)C12C=C(Cl)c1ccccc12` (centres unmarked) [drawing 11], the “Insecticidal activity rating, Southern Armyworms, 7-days” value in assay [4] is 0 (0-4% killed or affected). The “Activity rating, Phosphate Resistant Mites” value in assay [5] (10 ppm) was 0 (0-4% killed or affected); in assay [5] (100 ppm), 5 (51-60% mortality); in assay [5] (300 ppm), 8 (86-95% mortality). Besides, the “Insecticidal activity rating, Mexican Bean Beetles” value in assay [6] (10 ppm), in assay [6] (100 ppm) and in assay [6] (300 ppm) was 9 (100% mortality) throughout. In addition, the “Insecticidal activity rating, Southern Armyworms” value in assay [7] (10 ppm) is 7 (71-85% mortality); in assay [7] (100 ppm) it was 9 (100% mortality); in assay [7] (1000 ppm) it was 9 (100% mortality).
